Laboratory results: ChEMBL document CHEMBL1131688, “Solution-phase and solid-phase synthesis of novel transition state inhibitors of coagulation enzymes incorporating a piperidinyl moiety” (Bioorg Med Chem Lett, 1999)

How the values were obtained:
[1] = molecular target: T1, Coagulation factor X (Homo sapiens, UniProt P00742); test: Inhibitory activity against Coagulation factor X with respect to Argatroban
[2] = molecular target: Prothrombin (Homo sapiens, UniProt P00734); test: Inhibitory activity against thrombin with respect to Argatroban
[3] = molecular target: T1, Coagulation factor X; test: Inhibitory activity against Coagulation factor X

T1 sequence (P00742 41-179 limits assumed): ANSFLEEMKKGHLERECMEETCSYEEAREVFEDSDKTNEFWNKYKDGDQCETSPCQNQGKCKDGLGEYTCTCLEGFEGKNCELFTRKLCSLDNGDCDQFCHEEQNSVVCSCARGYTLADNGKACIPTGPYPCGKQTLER
T1 sequence (P00742 235-488 limits assumed): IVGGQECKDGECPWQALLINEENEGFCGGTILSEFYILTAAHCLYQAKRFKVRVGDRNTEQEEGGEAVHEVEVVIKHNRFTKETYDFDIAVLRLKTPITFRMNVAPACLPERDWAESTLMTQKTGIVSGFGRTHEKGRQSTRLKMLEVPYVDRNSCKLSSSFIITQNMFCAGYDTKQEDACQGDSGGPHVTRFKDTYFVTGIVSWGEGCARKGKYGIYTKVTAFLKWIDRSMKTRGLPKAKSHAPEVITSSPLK

SMILES | IC50 [1] [nM] | IC50 [2] [nM] | IC50 [3] [nM]
CCS(=O)(=O)N[C@H](CC1CCCCC1)C(=O)N1CCC[C@H]1C(=O)NC(CC1CCNCC1)C(=O)c1nccs1 (stereo partly specified) | 4100 | 160 | 
O=C(Cn1cccc(NS(=O)(=O)Cc2ccccc2)c1=O)N[C@@H](CC1CCNCC1)C(=O)C(=O)NCc1ccccc1 | 3600 | 590 | 
CCS(=O)(=O)N[C@H](CC1CCCCC1)C(=O)N1CCC[C@H]1C(=O)NC(CC1CCNCC1)C(=O)C(=O)O (stereo partly specified) | 16000 | 220 | 
O=C(NCc1ccccc1)C(=O)[C@H](CC1CCNCC1)NC(=O)[C@H]1CCCN1C(=O)CC(c1ccccc1)c1ccccc1 | 54000 | 260 | 
O=C(O)CN[C@H](CC1CCCCC1)C(=O)N[C@@H](Cc1ccccc1)C(=O)NC(CC1CCNCC1)C(=O)c1nccs1 (stereo partly specified) | 7800 | 3100 | 
CC1CNc2c(cccc2S(=O)(=O)N[C@@H](CCCNC(=N)N)C(=O)N2CCC(C)C[C@@H]2C(=O)O)C1 (single isomer, unassigned) [ARGATROBAN] |  |  | 134000
O=C(CN1CCCCC(NS(=O)(=O)Cc2ccccc2)C1=O)N[C@@H](CC1CCNCC1)C(=O)C(=O)NCc1ccccc1 (stereo partly specified) | 5200 | 1400 | 

Further lines, results first:

IC50 [1] [nM] | IC50 [2] [nM] | IC50 [3] [nM] | SMILES
430 | 4800 |  | CN(CC(=O)NC(CC1CCNCC1)C(=O)c1nccs1)C(=O)[C@@H](CC1CCCCC1)NCC(=O)O (stereo partly specified)
1100 | 19400 |  | O=C(O)CN[C@H](CC1CCCCC1)C(=O)NCC(=O)NC(CC1CCNCC1)C(=O)c1nccs1 (stereo partly specified)
2500 | 120 |  | CCS(=O)(=O)N[C@H](CC1CCCCC1)C(=O)N1CCC[C@H]1C(=O)N[C@@H](CC1CCNCC1)C(=O)c1nccs1
2900 | 48 |  | O=C(NCc1ccccc1)C(=O)[C@H](CC1CCNCC1)NC(=O)[C@H]1CCCN1C(=O)[C@@H]1NCC[C@H]2CCCC[C@H]21
